Experimental data reported in ChEMBL document CHEMBL1146401, “A bioactive seco-rosane diterpenoid from Vellozia candida” (1997).

Assays:
Saccharomyces cerevisiae [1] = experiment: DNA damaging activity against DNA […] Saccharomyces cerevisiae RS 188N (RAD+) mutant assessed as drug level required to produce 12 mm zone of inhibition after 48 hrs; type: functional
Saccharomyces cerevisiae [2] = experiment: DNA damaging activity against DNA repair-deficient Saccharomyces cerevisiae RS 322YK (rad 52Y) mutant assessed as drug level required to produce 12 mm zone of inhibition after 48 hrs; type: functional

Question: `C=C[C@@]1(C)C[C@@H]2OC(=O)C3=C(CCCC3(C)C)[C@@]2(C)[C@H](C(=O)O)C1` [CANDIDALACTONE] was tested. Which Activity (Saccharomyces cerevisiae [1]) did it give?
Answer: >200 µg/mL

Question: What about the Activity (Saccharomyces cerevisiae [2]) of the same molecule?
Answer: 87 µg/mL
